# Results from ChEMBL document CHEMBL4373747 (ACS Med Chem Lett, 2020).
# pIC50, pKi: −log10 of the molar value.
# Legend:
# Histone deacetylase 3 = Histone deacetylase 3 (Homo sapiens, UniProt O15379); test: Inhibition of recombinant full length human HDAC3 expressed in baculovirus infected Sf9 cells using FAM-RHKK-Ac as substrate incubated for 3 hrs by electrophoretic mobility shift assay
# [1] = target: T1, Protein deacetylase HDAC6 (Homo sapiens, UniProt Q9UBN7); test: Inhibition of recombinant full length human HDAC6 expressed in baculovirus infected Sf9 cells using FAM-RHKK-Ac as substrate incubated for 5 hrs by electrophoretic mobility shift assay
# T1 sequence (Q9UBN7 whole entry): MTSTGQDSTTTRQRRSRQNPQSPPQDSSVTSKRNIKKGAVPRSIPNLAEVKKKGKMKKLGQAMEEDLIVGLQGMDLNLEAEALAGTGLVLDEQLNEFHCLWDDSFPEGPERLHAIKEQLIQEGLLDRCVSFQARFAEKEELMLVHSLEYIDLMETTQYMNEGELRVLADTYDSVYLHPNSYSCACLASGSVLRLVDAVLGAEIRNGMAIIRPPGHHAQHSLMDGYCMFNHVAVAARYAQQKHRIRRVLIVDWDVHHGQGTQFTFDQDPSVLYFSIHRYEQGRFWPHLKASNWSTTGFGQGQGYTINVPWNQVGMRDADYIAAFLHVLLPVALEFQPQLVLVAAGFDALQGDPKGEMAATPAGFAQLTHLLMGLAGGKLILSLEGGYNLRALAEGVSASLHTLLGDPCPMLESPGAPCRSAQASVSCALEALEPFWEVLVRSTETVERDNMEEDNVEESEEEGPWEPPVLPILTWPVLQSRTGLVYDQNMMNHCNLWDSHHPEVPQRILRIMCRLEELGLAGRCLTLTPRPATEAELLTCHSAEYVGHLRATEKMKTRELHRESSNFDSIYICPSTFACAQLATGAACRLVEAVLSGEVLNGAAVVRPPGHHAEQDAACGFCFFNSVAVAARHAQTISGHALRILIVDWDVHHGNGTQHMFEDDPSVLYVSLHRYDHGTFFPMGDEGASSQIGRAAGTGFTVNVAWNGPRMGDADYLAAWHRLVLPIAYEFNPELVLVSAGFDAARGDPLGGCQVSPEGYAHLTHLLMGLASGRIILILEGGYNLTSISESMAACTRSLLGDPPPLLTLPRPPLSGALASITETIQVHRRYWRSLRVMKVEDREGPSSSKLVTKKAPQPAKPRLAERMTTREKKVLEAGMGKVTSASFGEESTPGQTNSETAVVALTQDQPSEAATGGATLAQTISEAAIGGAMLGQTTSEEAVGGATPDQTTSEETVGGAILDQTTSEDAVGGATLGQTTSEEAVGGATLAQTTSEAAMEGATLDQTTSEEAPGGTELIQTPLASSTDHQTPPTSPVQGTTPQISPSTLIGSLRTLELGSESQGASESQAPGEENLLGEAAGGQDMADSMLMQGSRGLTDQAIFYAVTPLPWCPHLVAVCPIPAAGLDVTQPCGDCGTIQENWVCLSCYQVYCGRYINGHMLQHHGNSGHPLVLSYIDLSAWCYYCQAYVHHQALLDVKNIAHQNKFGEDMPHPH
# Histone deacetylase 8 = target: T2, Histone deacetylase 8 (Homo sapiens, UniProt Q9BY41); test: Inhibition of recombinant full length human HDAC8 expressed in baculovirus infected Sf9 cells using FAM-RHKK-TFAc as substrate incubated for 3 hrs by electrophoretic mobility shift assay
# T2 sequence (Q9BY41 whole entry): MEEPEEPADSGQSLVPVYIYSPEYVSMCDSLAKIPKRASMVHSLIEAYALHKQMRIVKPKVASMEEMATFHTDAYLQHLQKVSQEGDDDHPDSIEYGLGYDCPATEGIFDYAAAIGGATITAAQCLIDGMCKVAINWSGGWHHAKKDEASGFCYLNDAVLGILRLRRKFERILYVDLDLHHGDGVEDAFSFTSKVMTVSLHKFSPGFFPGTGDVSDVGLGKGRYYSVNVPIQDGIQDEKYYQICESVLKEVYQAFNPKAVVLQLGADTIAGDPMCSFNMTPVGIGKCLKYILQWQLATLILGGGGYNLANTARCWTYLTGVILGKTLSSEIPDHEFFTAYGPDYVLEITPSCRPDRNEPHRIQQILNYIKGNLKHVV
# Histone deacetylase 11 = target: T3, Histone deacetylase 11 (Homo sapiens, UniProt Q96DB2); test: Inhibition of recombinant full length human HDAC11 expressed in baculovirus infected Sf9 cells using FAM-RHKK-TFAc as substrate incubated for 17 hrs by electrophoretic mobility shift assay
# T3 sequence (Q96DB2 whole entry): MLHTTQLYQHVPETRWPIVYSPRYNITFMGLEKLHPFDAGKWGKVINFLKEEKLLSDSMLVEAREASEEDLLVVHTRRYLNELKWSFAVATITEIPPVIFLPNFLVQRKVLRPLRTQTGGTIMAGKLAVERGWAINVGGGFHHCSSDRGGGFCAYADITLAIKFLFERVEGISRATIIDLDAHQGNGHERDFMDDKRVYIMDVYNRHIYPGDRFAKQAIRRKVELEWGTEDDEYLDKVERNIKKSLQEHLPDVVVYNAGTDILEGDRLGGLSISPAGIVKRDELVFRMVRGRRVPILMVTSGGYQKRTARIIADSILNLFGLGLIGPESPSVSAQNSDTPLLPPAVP
# [2] = target: T1, Protein deacetylase HDAC6; test: Inhibition of recombinant full length human HDAC6 expressed in baculovirus infected Sf9 cells assessed as inhibitory constant using FAM-RHKK-Ac as substrate incubated for 5 hrs by electrophoretic mobility shift assay
# MV4-11 = test: Cytotoxicity against human MV4-11 cells assessed as reduction in cell viability incubated for 72 hrs by cell-titer blue assay; type: functional, cell-based; conditions: MV4-11, 72 h
# MOLM-13 = test: Cytotoxicity against human MOLM13 cells assessed as reduction in cell viability incubated for 72 hrs by cell-titer blue assay; type: functional, cell-based; conditions: MOLM-13, 72 h
# MDA-MB-468 = test: Cytotoxicity against human MDA-MB-468 cells assessed as reduction in cell viability incubated for 72 hrs by cell-titer blue assay; type: functional, cell-based; conditions: MDA-MB-468, 72 h
# [3] = Cytotoxicity against human MRC9 cells assessed as reduction in cell viability incubated for 72 hrs by cell-titer blue assay; type: cell-based; conditions: MRC9, 72 h
# [4] = Efflux ratio of apparent permeability in human Caco2 cells incubated for 2 hrs by LC/MS analysis; type: ADME, cell-based, Caco-2; conditions: Caco-2
# MDA-MB-231 = test: Cytotoxicity against human MDA-MB-231 cells assessed as reduction in cell viability incubated for 72 hrs by cell-titer blue assay; type: functional, cell-based; conditions: MDA-MB-231, 72 h
# Histone deacetylase 5 = Histone deacetylase 5 (Homo sapiens, UniProt Q9UQL6); test: Inhibition of recombinant full length human HDAC5 expressed in baculovirus infected Sf9 cells using FAM-RHKK-TFAc as substrate incubated for 3 hrs by electrophoretic mobility shift assay
# Sequence of Histone deacetylase 5 (Q9UQL6 whole entry, the tested form may be a part): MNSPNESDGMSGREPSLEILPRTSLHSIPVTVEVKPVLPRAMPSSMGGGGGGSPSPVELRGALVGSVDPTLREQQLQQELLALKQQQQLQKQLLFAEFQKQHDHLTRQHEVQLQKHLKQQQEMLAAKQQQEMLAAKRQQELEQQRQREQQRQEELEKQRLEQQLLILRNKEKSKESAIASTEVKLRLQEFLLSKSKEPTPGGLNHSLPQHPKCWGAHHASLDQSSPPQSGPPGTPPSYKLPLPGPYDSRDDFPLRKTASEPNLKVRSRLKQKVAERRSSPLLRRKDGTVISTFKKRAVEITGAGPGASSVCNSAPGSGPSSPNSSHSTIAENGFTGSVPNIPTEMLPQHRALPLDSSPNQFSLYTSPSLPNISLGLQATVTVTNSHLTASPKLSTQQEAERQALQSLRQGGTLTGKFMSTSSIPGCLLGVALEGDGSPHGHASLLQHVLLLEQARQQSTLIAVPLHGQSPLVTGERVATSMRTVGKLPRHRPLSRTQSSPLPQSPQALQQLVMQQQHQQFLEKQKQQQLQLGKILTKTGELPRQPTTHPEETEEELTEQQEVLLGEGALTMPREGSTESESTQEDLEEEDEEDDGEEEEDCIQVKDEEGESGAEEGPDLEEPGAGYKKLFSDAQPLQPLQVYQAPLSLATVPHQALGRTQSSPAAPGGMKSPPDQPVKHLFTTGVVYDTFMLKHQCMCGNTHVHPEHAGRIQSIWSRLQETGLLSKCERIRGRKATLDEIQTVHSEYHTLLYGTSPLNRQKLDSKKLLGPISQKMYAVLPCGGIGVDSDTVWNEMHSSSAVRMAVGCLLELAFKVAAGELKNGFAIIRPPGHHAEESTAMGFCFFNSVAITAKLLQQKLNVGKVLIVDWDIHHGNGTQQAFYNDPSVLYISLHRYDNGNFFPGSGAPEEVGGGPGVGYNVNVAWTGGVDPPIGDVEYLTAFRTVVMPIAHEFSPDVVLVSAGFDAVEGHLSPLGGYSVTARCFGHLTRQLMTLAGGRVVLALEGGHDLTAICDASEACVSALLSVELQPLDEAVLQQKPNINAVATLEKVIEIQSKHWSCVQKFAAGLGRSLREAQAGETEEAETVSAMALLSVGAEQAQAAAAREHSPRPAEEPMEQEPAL
# Histone deacetylase 9 = Histone deacetylase 9 (Homo sapiens, UniProt Q9UKV0); test: Inhibition of recombinant human HDAC9 (604-1066 residues) expressed in baculovirus infected Sf9 cells using FAM-RHKK-TFAc as substrate incubated for 3 hrs by electrophoretic mobility shift assay
# Sequence of Histone deacetylase 9 (Q9UKV0 whole entry, the tested form may be a part): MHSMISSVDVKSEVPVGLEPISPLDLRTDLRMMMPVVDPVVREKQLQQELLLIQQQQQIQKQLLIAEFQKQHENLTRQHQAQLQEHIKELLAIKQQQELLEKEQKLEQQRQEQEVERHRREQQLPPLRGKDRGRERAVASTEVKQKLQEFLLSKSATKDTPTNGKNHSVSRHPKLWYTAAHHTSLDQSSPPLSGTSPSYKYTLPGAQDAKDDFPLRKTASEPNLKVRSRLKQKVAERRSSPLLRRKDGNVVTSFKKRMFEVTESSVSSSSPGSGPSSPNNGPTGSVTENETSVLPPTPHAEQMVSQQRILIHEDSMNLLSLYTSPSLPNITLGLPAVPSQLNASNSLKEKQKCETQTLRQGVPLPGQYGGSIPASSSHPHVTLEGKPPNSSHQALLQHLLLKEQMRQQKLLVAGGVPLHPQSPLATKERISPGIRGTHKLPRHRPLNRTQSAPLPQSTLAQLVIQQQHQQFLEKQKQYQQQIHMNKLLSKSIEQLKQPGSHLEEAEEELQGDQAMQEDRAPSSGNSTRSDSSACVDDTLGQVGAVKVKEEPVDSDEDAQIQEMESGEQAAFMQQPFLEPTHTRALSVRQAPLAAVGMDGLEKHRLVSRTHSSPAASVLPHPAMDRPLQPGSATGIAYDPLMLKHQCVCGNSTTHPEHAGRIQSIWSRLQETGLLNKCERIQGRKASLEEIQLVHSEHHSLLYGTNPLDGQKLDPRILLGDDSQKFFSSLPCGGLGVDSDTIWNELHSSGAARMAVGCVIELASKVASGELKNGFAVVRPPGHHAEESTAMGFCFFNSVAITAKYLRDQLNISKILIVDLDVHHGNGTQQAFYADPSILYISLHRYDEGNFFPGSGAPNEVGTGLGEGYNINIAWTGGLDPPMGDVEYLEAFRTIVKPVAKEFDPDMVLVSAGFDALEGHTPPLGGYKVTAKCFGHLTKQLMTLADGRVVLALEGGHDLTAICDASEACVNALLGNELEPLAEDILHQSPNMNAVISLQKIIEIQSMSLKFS
# [5] = target: T4, Polyamine deacetylase HDAC10 (Homo sapiens, UniProt Q969S8); test: Inhibition of recombinant full length human HDAC10 expressed in baculovirus infected Sf9 cells using FAM-RHKK-Ac as substrate incubated for 17 hrs by electrophoretic mobility shift assay
# T4 sequence (Q969S8 whole entry): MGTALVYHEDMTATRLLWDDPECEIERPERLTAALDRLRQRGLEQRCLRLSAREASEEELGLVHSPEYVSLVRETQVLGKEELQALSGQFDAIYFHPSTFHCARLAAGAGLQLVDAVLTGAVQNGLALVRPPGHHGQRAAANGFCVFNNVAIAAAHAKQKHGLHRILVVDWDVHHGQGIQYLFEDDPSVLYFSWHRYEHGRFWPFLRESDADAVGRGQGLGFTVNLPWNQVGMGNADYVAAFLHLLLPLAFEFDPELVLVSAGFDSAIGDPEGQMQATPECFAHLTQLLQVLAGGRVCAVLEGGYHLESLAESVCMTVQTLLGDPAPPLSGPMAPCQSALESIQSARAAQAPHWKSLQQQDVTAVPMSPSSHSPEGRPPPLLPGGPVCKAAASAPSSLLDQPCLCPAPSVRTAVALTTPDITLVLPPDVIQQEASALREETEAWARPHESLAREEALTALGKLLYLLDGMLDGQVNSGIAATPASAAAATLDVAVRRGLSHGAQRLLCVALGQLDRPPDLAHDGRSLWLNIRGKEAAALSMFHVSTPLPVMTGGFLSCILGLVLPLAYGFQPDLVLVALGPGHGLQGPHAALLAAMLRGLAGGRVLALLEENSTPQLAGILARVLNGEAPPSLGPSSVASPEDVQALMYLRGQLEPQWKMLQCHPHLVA
# Sequence of Histone deacetylase 3 (O15379 whole entry): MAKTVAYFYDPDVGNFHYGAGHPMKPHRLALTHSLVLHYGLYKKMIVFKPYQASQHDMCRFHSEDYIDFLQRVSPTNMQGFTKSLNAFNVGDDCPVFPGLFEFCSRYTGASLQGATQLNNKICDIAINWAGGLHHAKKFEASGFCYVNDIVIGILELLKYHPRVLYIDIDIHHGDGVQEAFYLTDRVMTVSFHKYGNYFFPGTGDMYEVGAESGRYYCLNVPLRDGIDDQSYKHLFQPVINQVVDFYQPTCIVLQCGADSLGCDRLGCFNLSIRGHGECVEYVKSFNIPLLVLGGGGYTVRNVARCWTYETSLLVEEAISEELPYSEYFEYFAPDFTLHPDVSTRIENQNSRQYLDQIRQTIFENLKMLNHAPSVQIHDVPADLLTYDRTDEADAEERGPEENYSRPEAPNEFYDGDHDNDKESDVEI
pIC50 (Histone deacetylase 3),pIC50 [1],pIC50 (Histone deacetylase 8),pIC50 (Histone deacetylase 11),pKi [2],pIC50 (Histone deacetylase 5),pIC50 (Histone deacetylase 9),pIC50 [5],SMILES,pIC50 (MV4-11),pIC50 (MOLM-13),pIC50 (MDA-MB-468),pIC50 [3],efflux ratio at 2 h [4],pIC50 (MDA-MB-231)
6.43,7.28,7.55,6.18,6.53,–,–,–,CC(C)(C)c1ccc(CN(C(=O)CNS(=O)(=O)c2ccc(F)cc2)c2ccc(C(=O)NO)cc2)cc1,5.48,5.29,< 4.90,4.97,–,–
6.43,7.55,6.20,6.08,6.70,–,–,–,CC(C)(C)OC(=O)N(Cc1ccc(C(C)(C)C)cc1)c1ccc(C(=O)NO)cc1,5.51,4.99,< 4.60,5.02,–,< 4.60
6.56,7.15,7.07,< 6.00,6.70,–,–,–,CC(=O)N(Cc1ccc(C(C)(C)C)cc1)c1ccc(C(=O)NO)cc1,5.37,4.97,< 4.60,–,–,< 4.60

# More lines, now with the values behind:
SMILES,pIC50 (Histone deacetylase 3),pIC50 [1],pIC50 (Histone deacetylase 8),pIC50 (Histone deacetylase 11),pKi [2],pIC50 (Histone deacetylase 5),pIC50 (Histone deacetylase 9),pIC50 [5],pIC50 (MV4-11),pIC50 (MOLM-13),pIC50 (MDA-MB-468),pIC50 [3],efflux ratio at 2 h [4],pIC50 (MDA-MB-231)
COCCc1ccc(OCC(O)CNC(C)C)cc1 (configuration not stated) [METOPROLOL],–,–,–,–,–,–,–,–,–,–,–,–,1,–
Cn1cc(CNCC2CCN(c3ncc(C(=O)NO)cn3)CC2)c2ccccc21 [QUISINOSTAT],–,–,–,–,–,8.23,8.17,8.71,–,–,–,–,–,–
CN(C(=O)CN(Cc1c(F)c(F)c(F)c(F)c1F)S(=O)(=O)c1ccc(F)cc1)c1ccc(C(=O)NO)cc1,6.67,7.70,6.65,< 6.00,6.24,–,–,–,5.49,4.85,< 4.60,< 4.60,–,< 4.60
CC(C)(C)c1ccc(CN(C(=O)CN(Cc2c(F)c(F)c(F)c(F)c2F)S(C)(=O)=O)c2ccc(C(=O)NO)cc2)cc1,6.67,7.56,6.88,< 6.00,5.96,–,–,–,5.79,5.53,< 4.60,< 4.60,–,< 4.90
